Results reported in patent publication US20260191853A1, “METHOD OF TREATING DRUG-INDUCED BRADYARRHYTHMIA” (OSAKA UNIVERSITY, priority 2022, published 2026).
Counter-ions that a name gives are not always drawn. One block for each compound: values may come before it.

Experiments:
Hartley guinea pigs [1] = experiment: Termination effect on fingolimod-induced bradyarrhythmia in isoflurane-anesthetized guinea pig model; format: in vivo; conditions: 30 minutes after initiation of administration of 0.1 mg/kg i.v.; FIG. 5
From the text: Hartley guinea pigs (7 to 10 weeks old, male, available from Japan SLC, Inc.) were subjected to anesthetic induction by inhalation of isoflurane (available from Pfizer Japan Inc.), and each animal was held on an operating table having a heater function. The trachea was incised, and a tracheal cannula (KN-375, available from Natsume Seisakusho Co., Ltd.) was inserted. The tracheal cannula was connected to a ventilator (SN-480-7, available from Shinano Seisakusho Co., Ltd.), and artificial respiration was controlled by supplying 100% oxygen at a volume of 10 mL and a ventilation rate of 60 times/minute. Isoflurane (available from Pfizer Japan Inc.) anesthesia (about 1 to 4%, carrier gas: 100% oxygen) was used for maintenance of anesthesia. A catheter (BD intramedic polyethylene tubing PE50, available from Becton, Dickinson and Company) charged with 50 units/mL heparin (available from AY PHARMACEUTICALS CO., LTD.) was inserted into each of the carotid artery and the jugular vein and placed in the blood vessel. Systemic blood pressure was measured with a high-sensitivity DC amplifier (AD-611J, available from NIHON KOHDEN CORPORATION) via the catheter placed in the carotid artery. Electrodes were attached to the body surface, and a body surface electrocardiogram was measured with a high-sensitivity amplifier (AB-611J, available from NIHON KOHDEN CORPORATION). Blood pressure and electrocardiogram data were acquired and analyzed with PowerLab/Labchart system (available from ADInstruments). After stabilization of each parameter, fingolimod hydrochloride (available from Nissan Chemical Corporation) was continuously administered intravenously at 0.1 mg/kg for 10 minutes via the catheter placed in the jugular vein, followed by observation of the presence or absence of atrioventricular block. After confirmation that atrioventricular block continued for 10 minutes from the onset thereof, a solvent or compound (I) dihydrochloride was continuously administered intravenously at 0.1 mg/kg for 30 minutes, and the effect of terminating atrioventricular block was observed during the intravenous administration. The solvent used was saline (available from Otsuka Pharmaceutical Factory, Inc.). Data were recorded and blood was collected 10, 20, and 30 minutes after initiation of administration of compound (I) dihydrochloride and at the time of termination of atrioventricular block. The observation was terminated 30 minutes after initiation of the administration, and the animal was euthanized by exsanguination or intravenous administration of a large amount of saturated potassium chloride solution under isoflurane anesthesia. Data were analyzed for the presence or absence of the termination, the time required for the termination, and the plasma concentration of compound (I) at the time of termination. The plasma was collected by centrifuging the blood and cryopreserved at about −20° C. After thawing of the plasma, plasma drug concentrations were measured using LC/MS/MS after deproteinization with acetonitrile.
In Table 1, the measurements are shown as mean±standard error.

Hartley guinea pigs [2] = experiment: Preventive effect on fingolimod-induced bradyarrhythmia in isoflurane-anesthetized guinea pig model; format: in vivo; conditions: fingolimod hydrochloride 0.1 mg/kg i.v. over 10 min, compound (I) non-administration group
Protocol: A solvent or compound (I) (free form) was administered by oral gavage at a dose of 1, 3, or 10 mg/kg (volume: 5 mL/kg) to Hartley guinea pigs (7 to 10 weeks old, male, available from Japan SLC, Inc.). After completion of the administration, each animal was subjected to anesthetic induction by inhalation of isoflurane (available from Pfizer Japan Inc.), and the animal was held on an operating table having a heater function. The trachea was incised, and a tracheal cannula (KN-375, available from Natsume Seisakusho Co., Ltd.) was inserted. The tracheal cannula was connected to a ventilator (SN-480-7, available from Shinano Seisakusho Co., Ltd.), and artificial respiration was controlled by supplying 100% oxygen at a volume of 10 mL and a ventilation rate of 60 times/minute. The solvent used was 0.5 w/v % methyl cellulose 400 solution (available from FUJIFILM Wako Pure Chemical Corporation). Isoflurane (available from Pfizer Japan Inc.) anesthesia (about 1 to 4%, carrier gas: 100% oxygen) was used for maintenance of anesthesia. A catheter (BD intramedic polyethylene tubing PE50, available from Becton, Dickinson and Company) charged with 50 units/mL heparin (available from AY PHARMACEUTICALS CO., LTD.) was inserted into each of the carotid artery and the jugular vein and placed in the blood vessel. Systemic blood pressure was measured with a high-sensitivity DC amplifier (AD-611J, available from NIHON KOHDEN CORPORATION) via the catheter placed in the carotid artery. Electrodes were attached to the body surface, and a body surface electrocardiogram was measured with a high-sensitivity amplifier (AB-611J, available from NIHON KOHDEN CORPORATION). Blood pressure and electrocardiogram data were acquired and analyzed with PowerLab/Labchart system (available from ADInstruments). Analysis items are systolic blood pressure, diastolic blood pressure, average blood pressure, heart rate, P-wave width, PR interval, QRS width, QT interval, and corrected QT interval. Corrected QT interval was calculated using the fridericia formula (QTc=QT interval/RR interval^1/3). After stabilization of each parameter, fingolimod hydrochloride (synthesized with reference to WO 2000/027798) was continuously administered intravenously at 0.1 mg/kg for 10 minutes via the catheter placed in the jugular vein, followed by observation of the presence or absence of the onset of bradyarrhythmia for 60 minutes. The solvent used was saline (available from Otsuka Pharmaceutical Factory, Inc.). Data were recorded and blood was collected 5, 10, 15, 20, 30, and 60 minutes after initiation of administration of fingolimod hydrochloride. The observation was terminated 60 minutes after initiation of the administration, and the animal was euthanized by exsanguination or intravenous administration of a large amount of pentobarbital or saturated potassium chloride solution under isoflurane anesthesia. Data were analyzed for atrial beating rate over time, ventricular beating rate over time, electrocardiographic parameters, the presence or absence of the onset of atrioventricular block, and plasma concentrations of compound (I), fingolimod, and fingolimod phosphorylated form. The plasma was collected by centrifuging the blood and cryopreserved at about −20° C. After thawing of the plasma, plasma drug concentrations were measured using LC/MS/MS after deproteinization with acetonitrile.
Atrioventricular block was defined as follows.
Second-degree atrioventricular block: atrial activation wave (P wave) is normal, which is followed by or not followed by ventricular activation wave (QRS wave).
Third-degree atrioventricular block: there is no electrical conduction between the atrium and the ventricle, and atrial and ventricular activation waves are generated independently, resulting in atrioventricular dissociation.
In FIG. 1, the measurements are shown as mean±standard error. […]

Hartley guinea pigs [3] = experiment: Preventive effect on siponimod-induced bradyarrhythmia in isoflurane-anesthetized guinea pig model; format: in vivo; conditions: siponimod 0.01 mg/kg i.v. over 10 min, compound (I) non-administration group
Protocol: A solvent or compound (I) (free form) was administered by oral gavage at a dose of 0.3. 1, or 3 mg/kg (volume: 5 mL/kg) to Hartley guinea pigs (7 to 10 weeks old, male, available from Japan SLC, Inc.). After completion of the administration, each animal was subjected to anesthetic induction by inhalation of isoflurane (available from Pfizer Japan Inc.), and the animal was held on an operating table having a heater function. The trachea was incised, and a tracheal cannula (KN-375, available from Natsume Seisakusho Co., Ltd.) was inserted. The tracheal cannula was connected to a ventilator (SN-480-7, available from Shinano Seisakusho Co., Ltd.), and artificial respiration was controlled by supplying 100% oxygen at a volume of 10 mL and a ventilation rate of 60 times/minute. The solvent used was 0.5 w/v % methyl cellulose 400 solution (available from FUJIFILM Wako Pure Chemical Corporation). Isoflurane (available from Pfizer Japan Inc.) anesthesia (about 1 to 4%, carrier gas: 100% oxygen) was used for maintenance of anesthesia. A catheter (BD intramedic polyethylene tubing PE50, available from Becton, Dickinson and Company) charged with 50 units/mL heparin (available from AY PHARMACEUTICALS CO., LTD.) was inserted into each of the carotid artery and the jugular vein and placed in the blood vessel. Systemic blood pressure was measured with a high-sensitivity DC amplifier (AD-611J, available from NIHON KOHDEN CORPORATION) via the catheter placed in the carotid artery. Electrodes were attached to the body surface, and a body surface electrocardiogram was measured with a high-sensitivity amplifier (AB-611J, available from NIHON KOHDEN CORPORATION). Blood pressure and electrocardiogram data were acquired and analyzed with PowerLab/Labchart system (available from ADInstruments). Analysis items are systolic blood pressure, diastolic blood pressure, average blood pressure, heart rate, P-wave width, PR interval, QRS width, QT interval, and corrected QT interval. Corrected QT interval was calculated using the Fridericia formula (QTc=QT interval/RR interval^1/3). After stabilization of each parameter, siponimod (synthesized according to WO 2017/120124) was continuously administered intravenously at 0.01 mg/kg for 10 minutes via the catheter placed in the jugular vein, followed by observation of the presence or absence of the onset of bradyarrhythmia for 60 minutes. The solvent used was a solution prepared by mixing of Polyethylene Glycol 400 (available from KANTO CHEMICAL CO., INC.) and dimethyl sulfoxide (available from FUJIFILM Wako Pure Chemical Corporation) at 9: 1 (volume ratio). Data were recorded and blood was collected 5, 10, 15, 20, 30, and 60 minutes after initiation of administration of siponimod. The observation was terminated 60 minutes after initiation of the administration, and the animal was euthanized by exsanguination or intravenous administration of a large amount of saturated potassium chloride solution under isoflurane anesthesia. Data were analyzed for atrial beating rate over time, ventricular beating rate over time, electrocardiographic parameters, the presence or absence of the onset of atrioventricular block, and plasma concentrations of compound (I) and siponimod. The plasma was collected by centrifuging the blood and cryopreserved at about −20° C. After thawing of the plasma, plasma drug concentrations were measured using LC/MS/MS after deproteinization with acetonitrile.
In FIG. 3, the measurements are shown as mean±standard error. Abbreviations, etc. are as follows. • (I): compound (I) • Atrioventricular block: the presence or absence of atrioventricular block • (x denotes second- or third-degree atrioventricular block) • PR & QRS: atrioventricular conduction time and ventricular activation time • QT & QTcF: ventricular repolarization time and heart rate-corrected ventricular repolarization time • Plasma concentration: the plasma concentration of siponimod or compound (I)

[4] = system: human iPS cell-derived atrial myocytes; experiment: Siponimod-induced decrease in beating rate in human iPS cell-derived atrial myocytes (multi-electrode array); format: cell-based; conditions: 0.1 μM siponimod, observed 10 minutes
Protocol: Cryopreserved human iPS cell-derived atrial myocytes (Human iPSC-derived atrial cardiomyocytes, available from Axol Bioscience) were thawed and seeded at 1,400,000 cells/well on a fibronectin-coated 6-well plate, followed by culturing in an incubator at 37° C. and 5% CO2 for 11 days. During the culture, the entire amount of medium was changed every other day. After the elapse of 11 days, human iPS cell-derived atrial myocytes that started beating were removed from the plate and recovered with TrypLE Select Enzyme (available from ThermoFisher Scientific). The atrial myocytes were seeded at 25,000 cells/2 μL on a fibronectin-coated 6-well MEA Chip (60-6well MEA200/30iR-Ti-tcr, available from Multi Channel Systems) and cultured in an incubator at 37° C. and 5% CO2 for one hour. Thereafter, 400 μL of medium was added and cultured in an incubator at 37° C. and 5% CO2 for 13 days. During the culture, a half amount of the medium was changed every other day. After the elapse of […], the MEA Chip was set in a multi-electrode array system (MEA2100, available from Multi Channel Systems) to thereby obtain extracellular potentials under spontaneous beating. […] Data were analyzed with Labchart System (available from ADInstruments).
In FIG. 6, the measurements are shown as mean±standard error, and (I) denotes compound (I).

SMILES: Cc1cc(CO)nc2cc3c(cc12)OC(C)(C)[C@H](O)[C@H]3NCCc1ccccc1 [compound (I) dihydrochloride]
fingolimod-induced bradycardia (heart rate, electrocardiogram) (Hartley guinea pigs [1]): completely recovered

SMILES: CCCCCCCCc1ccc(CCC(N)(CO)CO)cc1 [fingolimod, reference compound]
cases with fingolimod-induced atrioventricular block (Hartley guinea pigs [2]): four out of four

beating rate after addition of siponimod (sinus bradycardia) [4]: ≤ 50 beats/minute
SMILES: CCc1cc(/C(C)=N/OCc2ccc(C3CCCCC3)c(C(F)(F)F)c2)ccc1CN1CC(C(=O)O)C1 [siponimod, reference compound]
cases with siponimod-induced atrioventricular block (Hartley guinea pigs [3]): three out of four
